Each structure is given as a SMILES string.

As usually defined, the Emax is the maximal effect, on the per cent scale that the assay sets.

The target of assay [1] is T1, β-1 adrenergic receptors (Cavia porcellus, UniProt H0W3H1).
T1 construct: conventionally isolated tissue preparations (guinea pig atrial and tracheal strips); from tissue; host or cells: guinea pig atrial strips
Kind of assay: Guinea pig atrial strips, atrial rate (chronotropic response), β-1 agonist activity. The assay is classed as cell-based. As to the method: (§1) The pharmaceutical activity of the present compounds was determined in vitro using conventionally isolated tissue preparations (guinea pig atrial and tracheal strips). […] Both chronotropic (rate) and inotropic (force) responses were thereby assessed. […] The observed effect on tracheal muscle relaxation is equated with and considered to be an indication of bronchodilator activity. The β-1 and β-2 adrenergic receptor designations are those of Lands et al., Nature, 214, page 597 (1967).

In assay [2] the target is T2, β-2 adrenergic receptors (Cavia porcellus, UniProt Q8K4Z4).
T2 construct: conventionally isolated tissue preparations (guinea pig atrial and tracheal strips); from tissue; host or cells: guinea pig tracheal strips
T2 sequence (Q8K4Z4 whole entry): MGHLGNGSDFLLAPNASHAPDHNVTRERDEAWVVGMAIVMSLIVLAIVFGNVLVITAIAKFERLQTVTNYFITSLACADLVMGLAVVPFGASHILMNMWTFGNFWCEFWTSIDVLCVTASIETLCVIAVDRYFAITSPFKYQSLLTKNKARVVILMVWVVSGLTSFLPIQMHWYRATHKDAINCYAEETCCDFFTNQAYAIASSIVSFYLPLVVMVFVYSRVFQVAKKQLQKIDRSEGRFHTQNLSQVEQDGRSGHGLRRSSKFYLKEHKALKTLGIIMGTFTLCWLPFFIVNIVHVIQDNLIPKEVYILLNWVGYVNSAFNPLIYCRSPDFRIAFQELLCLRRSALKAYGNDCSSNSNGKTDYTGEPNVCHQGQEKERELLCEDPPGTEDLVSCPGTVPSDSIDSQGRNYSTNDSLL
Kind of assay: Guinea pig tracheal strips, tracheal muscle relaxation, β-2 agonist activity (bronchodilator activity). The class given is cell-based. The method, then:
as §1

The nature of assay [3]: Blood pressure of a rat after intravenous injection. The assay is classed as in vivo. The settings on record: injected intravenously.
The target in assay [4] is T1, β-1 adrenergic receptors. The experiment in a line: Guinea pig atrial strips, atrial force (inotropic response), β-1 agonist activity. The class given is cell-based. The settings on record: Atrial force (β-1). As to the method: as §1

T1 sequence (H0W3H1 1-470): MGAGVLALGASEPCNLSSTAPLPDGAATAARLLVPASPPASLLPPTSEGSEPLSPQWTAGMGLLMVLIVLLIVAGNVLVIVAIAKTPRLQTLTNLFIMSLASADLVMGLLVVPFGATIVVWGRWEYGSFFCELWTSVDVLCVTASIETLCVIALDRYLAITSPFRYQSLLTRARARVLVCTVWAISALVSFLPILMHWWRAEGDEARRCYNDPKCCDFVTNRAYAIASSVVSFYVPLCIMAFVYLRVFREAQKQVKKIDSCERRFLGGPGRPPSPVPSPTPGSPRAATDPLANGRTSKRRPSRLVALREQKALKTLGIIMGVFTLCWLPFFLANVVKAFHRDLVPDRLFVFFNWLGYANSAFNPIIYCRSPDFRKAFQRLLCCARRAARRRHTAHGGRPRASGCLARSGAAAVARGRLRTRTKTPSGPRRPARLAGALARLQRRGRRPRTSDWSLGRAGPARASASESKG

With `CC(C)NCC(O)c1ccc2nc[nH]c2c1` (racemic) [R, S-BENZISO, R,S-1-(5-benzimidazolyl)-2-isopropylaminoethanol], the relative activity in assay [1] (Atrial rate (β-1), [ED50 (R,S-ISO)/ED50 (R,S-BENZISO)] × 100) amounted to 0.355; in assay [2] (Tracheal relaxation (β-2), [ED50 (R,S-ISO)/ED50 (R,S-BENZISO)] × 100), 4.79; in assay [4] ([ED50 (R,S-ISO)/ED50 (R,S-BENZISO)] × 100), 0.355. Besides, the Emax in assay [1] (Atrial rate (β-1), maximum response relative to R,S-ISO × 100, mean ± S.E.M.) worked out at 50 ± 9%; in assay [2] (Tracheal relaxation (β-2), maximum response relative to R,S-ISO × 100, mean ± S.E.M.), 58 ± 7%; in assay [4] (maximum response relative to R,S-ISO × 100, mean ± S.E.M.) it was 33 ± 12%. Further, the EC50 in assay [1] (Atrial rate (β-1), mean ± S.E.M., n=5, administered as the dihydrochloride, read-out: pD2 (negative logarithm of ED50) (converted)) is 6.17 µM; in assay [2] (Tracheal relaxation (β-2), mean ± S.E.M., n=4, administered as the dihydrochloride, read-out: pD2 (negative logarithm of ED50) (converted)), 1.66 µM; in assay [4] (mean ± S.E.M., n=3, administered as the dihydrochloride, read-out: pD2 (negative logarithm of ED50) (converted)) it was 3.8 µM. Besides, the “cardiac stimulation (β-1 force and rate)” value in assay [1] (in words, from Table I) is recorded as “cardiac stimulant”. In addition, the “bronchodilator activity (β-2)” value in assay [2] (in words, from Table I) is reported as “good bronchodilator activity”. The “bronchodilator selectivity versus isoproterenol” value in assay [2] (in words, from the β-2/β-1 ratio) is “more bronchodilator selective than is isoproterenol”. Further, in assay [2] (relative activity (tracheal relaxation)/relative activity (atrial rate)), the “Ratio, β-2/β-1” value is 13.5. For the same compound, the “effect on blood pressure” value in assay [3] was “decrease blood pressure”.

For the origin of these results see US4204069A, “Reductive alkylation” (Merck & Co., Inc., priority 1978, dated 1980).
